Reference: article PMC6394493 (Cancer Chemotherapy and Pharmacology, 2018)
Like-named read-outs stand apart in the source and are kept apart here.

Experiments:
[1] = Phase I dose escalation (3 + 3): DLTs, MTD, recommended dose; format: in vivo
Procedure: BEZ235 was administered orally as a single agent on a continuous qd or bid dosing schedule. […] Furthermore, in the previous study, a granule formulation (BEZ235 SDS sachet) was developed because of difficulties in swallowing the large size capsules of the investigational drug. The ingredients of this new formulation, which are dispensed as granules contained within a sachet, are essentially the same as the capsule. […] Decisions regarding dose escalation were based on the safety profile, particularly DLTs, observed in the first cycle of treatment for each patient.
Safety assessments consisted of monitoring and recording of all AEs, including laboratory abnormalities and vital signs. DLTs were defined as an AE or a laboratory abnormality assessed as related to the study drug and occurring within the first 28 days of treatment (Cycle 1), as defined in Supplemental Table S1.

advanced solid tumors = assay: Tumor response per RECIST v1.0; format: in vivo, Japanese patients
Procedure: Tumor lesions were assessed by the investigators according to the RECIST guidelines, v1.0. Patients underwent screening using computed tomography (CT) or magnetic resonance imaging (MRI) scans. Screening was performed within 28 days of the first dose. The post-baseline RECIST assessments were performed every two cycles and then at the end of treatment.

S6 phosphorylation (pS6) = assay: pS6 in normal skin samples (PD biomarker); format: in vivo, Japanese patients; details: 400 mg bid; 3/6 patients; baseline vs end of Cycle 1
[2] = all formulations and dose levels tested (≥ 100 mg), qd; Western oncology patients; cited from earlier work
[3] = bid; Western oncology patients; cited from earlier work

## Cn1c(=O)n(-c2ccc(C(C)(C)C#N)cc2)c2c3cc(-c4cnc5ccccc5c4)ccc3ncc21 [BEZ235]
[1]; human, in vivo, 28 days
  recommended dose (RD): 1000 mg
[1]; in vivo
  tolerability of 400 mg bid: considered as a tolerable dose
[1]; qd dosing schedule
  maximum clinically tolerable dose: 1200 mg
[1]; qd dosing, highest dose that causes DLT in no more than one out of six patients in Cycle 1
  MTD: not reached
Advanced solid tumors; all dose levels, qd and bid, 35 patients, RECIST v1.0
  complete or partial responses (CR or PR): No complete or partial responses
Advanced solid tumors; bid, 2 of 8 evaluable patients
  Stable disease (SD) as the best response: 25.0%
Advanced solid tumors; one patient with carcinoma of unknown primary, qd
  duration of continued treatment with SD: 10 months
Advanced solid tumors; qd, 14 of 27 evaluable patients
  Stable disease (SD) as the best response: 51.9%
S6 phosphorylation (pS6)
  samples with reduction of pS6 in normal skin: 50%
[2]
  bioavailability: low bioavailability
[3]
  MTD: 300 mg
